According to US20240228474A1, “ANTIBACTERIAL COMPOUND” (DISCUVA LIMITED, priority 2021, published 2024):

Tests used:
[1] = system: Proteus mirabilis (DSM 4479); assay: MIC by broth microdilution (CLSI); format: cell-based; details: DSM4479
Method: Minimum Inhibitory Concentrations (MICs) versus Escherichia coli (NCTC 13441) and Klebsiella pneumoniae (NCTC 13438) (planktonic bacteria) were determined by the broth microdilution procedure in line with the guidelines of the Clinical and Laboratory Standards Institute (Clinical and Laboratory Standards Institute. Methods for Dilution Antimicrobial Susceptibility Tests for Bacteria That Grow Aerobically, Approved Standard-Eleventh Edition, CLSI document M07, 11 Jan. 2018). The broth dilution method involved a two-fold serial dilution of compounds in 96-well microtitre plates, giving a final concentration range of 0.39-200 μM and a maximum final concentration of 2% DMSO. The bacterial strains tested were Escherichia coli (NCTC 13441) and Klebsiella pneumoniae (NCTC 13438). Strains were grown in cation-adjusted Müller-Hinton broth or on Luria Bertani agar at 37° C. in an ambient atmosphere. The MIC (μM) was determined as the lowest concentration of compound that inhibits growth following a 20-24 hour incubation period.
Minimum Inhibitory Concentrations (MICs) versus Proteus mirabilis (DSM 4479) were determined for compound (I) and comparative compounds (II) and (III) using the methodology outlined above.

[2] = Lipophilicity, Log P measured with SiriusT3 (octanol titration); format: physicochemical; details: octanol / aqueous sample solution
Method: Log P values of compound (I) and comparative compound (III) were measured using the SiriusT3 instrument from Sirius Analytical by performing an acid-based titration and measuring the shift in pKa when the sample solution is in contact with an immiscible solvent (octanol). Log P for the comparative compound (II) was calculated using Marvin (physico-chemical calculation software). The lipophilicity data for compound (I) and comparative compounds (II) and (III) was collected in separate experiments carried out on different days, and compared in Table 5.

[3] = Volume of distribution (Vss) from mouse plasma profiles; format: in vivo; details: mice, 5 mg/kg IV bolus, 2 compartment model
Method: The volume of distribution (Vss) of compound (I) and comparative compounds (II) and (III) was determined from analysis of plasma concentration time profiles obtained from rodent species (mice), following 5 mg/kg IV bolus administration respectively. The volume of distribution was obtained by analysing the rodent plasma profiles for compound (I) and comparative compounds (II) and (III) using a 2 compartment IV bolus model in PK Solver (Excel). The volume of distribution data for compound (I) and comparative compound (II) was collected in separate experiments carried out on different days, and compared in Table 6.

[4] = system: Klebsiella pneumoniae ATCC 43816; assay: Murine respiratory infection proof-of-concept study, IV bolus; format: in vivo; details: 26 h from initial infection
Method: Compound (I) and comparative compound (III) were evaluated in proof-of-concept studies in murine models for the treatment of a respiratory infection with Gram-negative bacteria of the order Enterobacterales, a bacteraemia or bloodstream infection with Gram-negative bacteria of the order Enterobacterales, and a urinary tract infection with Gram-negative bacteria of the order Enterobacterales. Each dot, triangle or square indicator represents a single mouse. LOD refers to the limit of detection of the bacteria. […] Each of the proof-of-concept studies was carried out separately. By vehicle is meant pharmaceutically acceptable carrier or excipient. For the proof-of-concept study for the treatment of a respiratory infection caused or exacerbated by Gram-negative bacteria of the order Enterobacterales, CD-1 mice were infected with Klebsiella pneumoniae ATCC 43816. Two hours after infection (‘pre-treatment’ in FIG. 2), a vehicle (20% hydroxypropyl β cyclodextrin) containing no compound (I) or comparative compound (III), or a vehicle (20% hydroxypropyl β cyclodextrin) containing compound (I) or comparative compound (III), was administered by IV bolus at 20 mg/kg, TID (8 hrs apart), over one day.

[5] = system: E. coli BAA-2469 (NDM-1 positive); assay: Murine bacteraemia / bloodstream infection proof-of-concept study, IV bolus; format: in vivo; details: single dose IV bolus 20 mg/kg, 9 h from initial infection
Method: Compound (I) and comparative compound (III) were evaluated in proof-of-concept studies in murine models for the treatment of a respiratory infection with Gram-negative bacteria of the order Enterobacterales, a bacteraemia or bloodstream infection with Gram-negative bacteria of the order Enterobacterales, and a urinary tract infection with Gram-negative bacteria of the order Enterobacterales. Each dot, triangle or square indicator represents a single mouse. LOD refers to the limit of detection of the bacteria. […] Each of the proof-of-concept studies was carried out separately. By vehicle is meant pharmaceutically acceptable carrier or excipient.
For the proof-of-concept study for the treatment of a bacteraemia or bloodstream infection with Gram-negative bacteria of the order Enterobacterales, CD-1 mice were infected with human urine isolate E. coli BAA-2469 (NDM-1 positive). One hour after infection (‘pre-treatment’ in FIG. 3), a vehicle (20% hydroxypropyl β cyclodextrin) containing no compound (I) or comparative compound (III), or a vehicle (20% hydroxypropyl β cyclodextrin) containing compound (I) or comparative compound (III), was administered by as a single dose IV bolus at 20 mg/kg.

E. coli UT189 = assay: Murine urinary tract infection proof-of-concept study, IV bolus; format: in vivo; details: IV bolus 20 mg/kg TID over 3 days, 96 h after initial infection
Method: Compound (I) and comparative compound (III) were evaluated in proof-of-concept studies in murine models for the treatment of a respiratory infection with Gram-negative bacteria of the order Enterobacterales, a bacteraemia or bloodstream infection with Gram-negative bacteria of the order Enterobacterales, and a urinary tract infection with Gram-negative bacteria of the order Enterobacterales. Each dot, triangle or square indicator represents a single mouse. LOD refers to the limit of detection of the bacteria. […] Each of the proof-of-concept studies was carried out separately. By vehicle is meant pharmaceutically acceptable carrier or excipient. For the proof-of-concept study for the treatment of a urinary tract infection with Enterobacterales, female C3H/HeN mice were infected with E. coli UT189. Twenty-four hours after infection (‘pre-treatment’ in FIGS. 4a-c), a vehicle (20% hydroxypropyl β cyclodextrin) containing no compound (I) or comparative compound (III), or a vehicle (20% hydroxypropyl β cyclodextrin) containing compound (I) or comparative compound (III), was administered by IV bolus of 20 mg/kg, TID (8 hrs apart), over 3 days.

Structure (SMILES) | MIC [1] | logP [2] | Vd [3] | reduction of bacterial burden in the lung compared to vehicle ([4]; CD-1 mice, IV bolus 20 mg/kg TID over one day) | CFU value in lung relative to stasis level ([4]; IV bolus 20 mg/kg TID) | reduction of bacterial burden in the blood compared to vehicle ([5]; CD-1 mice) | bacterial burden (CFU) in the blood at end of study [5] | reduction of bacterial burden in the bladder compared to vehicle (E. coli UT189) | reduction of bacterial burden in the urine compared to vehicle (E. coli UT189; female C3H/HeN mice)
Cc1cnccc1-c1[nH]c(N)nc1-c1ccc2c(c1)N(C(=O)CN)CCO2 [Comparative Compound (III), reference compound] | > 200 µM | 1.03 | 7.9 L/kg | 4.16 log | remained relatively close to the stasis level | 4.86 log | remained on or above the stasis level | 3.71 log | 3.36 log
Cc1cc(-c2[nH]c(N)nc2-c2ccc3c(c2)N(C(=O)CN)CCO3)ccn1 [Comparative Compound (II)] | > 200 µM |  | 7.7 L/kg |  |  |  |  |  | 
